No end group written: not given here.
Key:
HD11 cells = test: Neutralization of LPS-induced interleukin-1β transcription in HD11 cells (real time PCR); format: cell-based, chicken; settings: 20 μM peptide pre-incubated with 50 ng/ml LPS; 4 h
Method: (§1) FIG. 11A-11B—Neutralization of lipopolysaccharide-induced interleukin-1β induction and nitric oxide production in HD11 cells by CMAP27 derived peptides. HD11 cells were seeded in 96 wells tissue culture treated plates (2×10^5 cell/mL) in RPMI-1640/10% FCS. Final concentrations of 50 ng/ml LPS were pre-incubated with or without 20 μM peptide for 30 min at 37° C. (5% CO2), applied to the cells and incubated for 4 h and 24 h. A) Transcription levels of interleukin-1 were determined by real time PCR (4 h only). B) Supernatants were collected for the determination of nitric oxide production (24 h incubations only) using the Griess assay. Significance levels: *P<0.05, **P<0.01, ***P<0.001. Data represents means±SEM from 3-4 independent experiments.
as §1, with “FIG. 12A-12B—Substitution” for “FIG. 11A-11B—Neutralization”, “of phenylalanine residues by tryptophan enhances the” for “of lipopolysaccharide-induced interleukin-1β induction and nitric oxide production”, “in vitro LPS neutralization capacity of” for “in HD11 cells by”, “h or” for “h and”
HD11 cells were seeded in 96 wells tissue culture treated plates (2×10^5 cell/mL) in RPMI-1640/10% FCS. Final concentrations of 50 ng/ml Salmonella minnesota LPS were pre-incubated with or without 20 μM peptide for 30 min at 37° C. (5% CO2), applied to the cells and incubated for 4 h and 24 h. A) Transcription levels of interleukin-1 were determined by real time PCR (4 h only). B) Supernatants were collected for the determination of nitric oxide production (24 h incubations only) using the Griess assay.

[1] = format: in vivo, chicken (Ross308 broilers); settings: for bodyweight at 7 days post hatch (D7): 1 mg/kg in ovo at embryonic day 18, compared to vehicle treated birds; for HATCHABILITY: in vivo, 1 mg/kg
Method: FIG. 8A-8B—Bodyweights of Ross308 broilers assessed at hatch (D0) (FIG. 8A) and at 7 days after hatch (D7) (FIG. 8B). Birds were injected at embryonic day 18 with 1 mg/kg peptide or vehicle.
DCATH2 peptide and truncated analogs D-CMAP(1-21) and D-CMAP(4-21) were suspended in a Cholesterol/PBS formulation. Ross308 eggs were injected in the amnion fluid at 18 days of embryonic age with 100 μl of peptide containing suspension and returned to an egg incubator to hatch (˜ at 21 days embryonic age). Both control groups were injected in the amnion fluid with cholesterol/PBS formulation. The 1 mg/kg bodyweight dose of peptide was calculated based on an embryo body weight of 22 g. After hatch, all birds were weighed individually (D0) and transferred into isolator units per treatment (n=120/group). Birds were fed ad libitum and at 7 days after hatch (D7) bodyweights of individual birds were assessed.

[2] = system: avian pathogenic Escherichia coli 506; test: In ovo peptide treatment, intratracheal E. coli challenge of broiler chicks; format: in vivo, chicken (Ross308 broilers)
Description: FIG. 4A-4B—Differential and total counts of chicken peripheral blood leukocytes at 2 days p.i. after intra-tracheal injection with 10^6 CFU of avian pathogenic E. coli 506. A) total counts. B) differential counts.
FIG. 5A-5B—Mortality after intra-tracheal injection with 10^6 CFU of avian pathogenic E. coli 506. A) Survival curves of peptide treated and nontreated birds during 7 days post infection. B) Reduction of mortality (%) relative to untreated infected birds.
(§2) FIG. 6A-6B—Lesion scores determined at 7 days p.i. after intratracheal injection with 10^6 CFU of avian pathogenic E. coli 506. Left and right thoracic air sacs (respiratory tract), liver and heart (systemic infection) were separately evaluated using a scoring system: 0=no lesions, 1=mild lesions, 2=moderate lesions and 3=severe lesions. The mean lesion scores (MLS) were calculated as the sum of lesion scores per bird. A) The percentage of colibacillosis positive birds (MLS>1) and the reduction of colibacillosis positive birds relative to untreated infected birds. B) The average lesion scores relative to untreated infected birds.
FIG. 7—Thoracic air sac counts 7 days after intratracheal injection with 10^6 CFU of avian pathogenic E. coli 506.
DCATH2 peptide was suspended in a Cholesterol/PBS formulation. Ross308 eggs were injected in the amnion fluid at 18 days of embryonic age with 100 μl of DCATH2 containing suspension and returned to an egg incubator to hatch (˜ at 21 days embryonic age). Both control groups were injected in the amnion fluid with cholesterol/PBS formulation. The 1 mg/kg bodyweight dose of DCATH2 peptide was calculated based on an embryo body weight of 22 g. After hatch, birds were transferred into isolator units per treatment (n=54/group). Three days after hatch, all birds except the negative control were intratracheally inoculated with an avian pathogenic Escherichia coli 506 strain (UU strain) at a dose of 1×10^6 CFU per bird. Two day after challenge, 13 birds per group were sacrificed and used to take samples for blood and organ analysis. Blood samples were taken to determine total leukocyte counts and leukocyte differentiation. During the 7 day challenge period mortality was registered per day. At the end of the challenge period at 7 days post infection, all remaining birds were sacrificed and in the left and right side thoracic air sacs, liver and heart were examined for lesion scores.

[3] = system: avian pathogenic Salmonella enteritidis pt13a; test: In ovo peptide treatment, subcutaneous Salmonella enteritidis challenge of broiler chicks; format: in vivo, chicken (Ross308 broilers)
Description: FIG. 1A-1B—Differential and total counts of chicken peripheral blood leukocytes at 2 days p.i. after subcutaneous injection with 10^6 CFU of avian pathogenic Salmonella enteritis pt13a. A) total counts. B) differential counts.
FIG. 2A-2B—Mortality after subcutaneous injection with 10^6 CFU of avian pathogenic Salmonella enteritis pt13a. A) Survival curves of peptide treated and nontreated birds during 7 days post infection. B) Reduction of mortality (%) relative to untreated infected birds (+ control).
as §2, with “3A-3B—Lesion” for “6A-6B—Lesion”, “subcutaneous” for “intratracheal”, “Salmonella enteritis pt13a.” for “E. coli 506.”, “salmonellosis” for “colibacillosis”
DCATH2 peptide (the full D-amino acid analog of CMAP1-26) was suspended in a cholesterol/PBS formulation. Ross308 eggs were injected in the amnion fluid at 18 days of embryonic age with 100 μl of DCATH2 containing suspension and returned to an egg incubator to hatch (˜ at 21 days embryonic age). Both control groups were injected in the amnion fluid with cholesterol/PBS formulation. The 1 mg/kg bodyweight dose of peptide was calculated based on an embryo body weight of 22 g. After hatch, birds were transferred into 4 pens per treatment (n=40/group). Three days after hatch, all birds except the negative control were subcutaneously inoculated with an avian pathogenic Salmonella enteritidis pt13a strain at a dose of 5×10^6 CFU per bird. Two day after challenge, 12 birds per group were sacrificed and used to take samples for blood and organ analysis. Blood samples were taken to determine total leukocyte counts and leukocyte differentiation. During the 7 day challenge period mortality was registered per day. At the end of the challenge period at 7 days post infection, all remaining birds were sacrificed and in the left and right side thoracic air sacs, liver and heart were examined for lesion scores.

[4] = 7 days p.i., 1 mg/kg in ovo, surviving birds
[5] = 2 days p.i., 1 mg/kg in ovo, compared to untreated non-infected birds
[6] = 2 days p.i., compared to non-treated, non-infected animals

## Phe/Trp substituted analog of CMAP10-21-NH2: CMAP10-21-NH2 with phenylalanine substituted by tryptophan (RRWRPKVTITIQ-NH2)
HD11 cells
  LPS-induced IL-1β expression blocked: 71.9%

## CMAP10-21-NH2: N-terminally truncated variant of CMAP1-21 (RRFRPKVTITIQ-NH2)
HD11 cells
  LPS-neutralizing activity (block of LPS-induced IL-1β expression, in words): lack LPS-neutralizing activity

## RFLREIRRFRPKVTITIQ-NH2 [D-C(4-21)]
[1]
  bodyweight at 7 days post hatch (D7): significant higher
  HATCHABILITY: 94%

## RFGRFLRKIRRFRPKVTITIQGSARFG (CMAP27) [CATH2, in b91 probably DCATH2 is meant]
[2]; 7 days p.i., 1 mg/kg in ovo
  reduction of severity of colibacillosis-related lesions: 64%

## Phe/Trp substituted analog of CMAP7-21-NH2: CMAP7-21-NH2 with phenylalanine substituted by tryptophan (RKIRRWRPKVTITIQ-NH2)
HD11 cells
  LPS-induced IL-1β expression blocked: 86.3%

## RFGRFLREIRRFRPKVTITIQGSARF-NH2 [DCATH2]
[3]; 1 mg/kg in ovo at embryonic day 18, Salmonella challenge 3 days after hatch
  delay of mortality: up to 3 days p.i.
[3]; 2 days p.i., 1 mg/kg in ovo, compared to non-infected birds
  absolute number of peripheral blood heterophils: significantly higher
[3]; 7 days p.i., 1 mg/kg in ovo
  decrease of severity of lesions in salmonellosis positive birds: 69%
  reduction of mortality relative to untreated infected birds: 50%
[3]; [4]
  reduction of salmonellosis positive birds (mean lesion score>1) relative to untreated infected birds: 53%
[1]
  bodyweight at 7 days post hatch (D7): significant higher
  HATCHABILITY: 97%
[2]; [5]
  absolute number of peripheral blood heterophils: significantly higher
  absolute number of peripheral blood leukocytes: significantly higher
[2]; [6]
  absolute number of lymphocytes: No differences
  absolute number of monocytes: No differences
[2]; 7 days p.i., 1 mg/kg in ovo
  reduction of mortality relative to untreated infected birds: 30%
  reduction of severity of colibacillosis-related lesions: 64%
[2]; [4]
  reduction of colibacillosis positive birds (MLS>1) relative to untreated infected birds: 52%
[2]; 7 days p.i., 1 mg/kg in ovo, thoracic air sac counts
  reduction of air sac colonization by E. coli: 93%

## RFGRFLREIRRFRPKVTITIQ-NH2 [D-C(1-21)]
[1]
  bodyweight at 7 days post hatch (D7): significant higher
  HATCHABILITY: 95%
